Experimental data from patent publication US7488740B2, “Substituted quinolin-4-ylamine analogues” (Neurogen Corporation, priority 2003, dated 2009).
pIC50: −log10 of the molar value.

target: T1, human capsaicin receptor (Homo sapiens, UniProt Q8NER1); experiment: Calcium mobilization assay (Example 6); assay type: cell-based; details: concentration required to provide a 50% decrease in the fluorescence response of cells exposed to one IC50 of capsaicin
T1 construct: A cDNA encoding full length human capsaicin receptor recited in U.S. Pat. No. 6,482,611 was subcloned in the plasmid pBK-CMV; expressed in transfected cells
In short: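 HEK293 clonal lines stably expressing full-length human capsaicin receptor, Fluo-3 AM loaded in KRH buffer pH 7.4. Compounds (final 1-5 μM) preincubated 0.5-6 h at room temperature in the dark, then capsaicin added at its predetermined IC50 concentration. FLIPR calcium signal at 30-60 s; IC50 = antagonist concentration giving 50% decrease.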

T1 sequence (Q8NER1 whole entry): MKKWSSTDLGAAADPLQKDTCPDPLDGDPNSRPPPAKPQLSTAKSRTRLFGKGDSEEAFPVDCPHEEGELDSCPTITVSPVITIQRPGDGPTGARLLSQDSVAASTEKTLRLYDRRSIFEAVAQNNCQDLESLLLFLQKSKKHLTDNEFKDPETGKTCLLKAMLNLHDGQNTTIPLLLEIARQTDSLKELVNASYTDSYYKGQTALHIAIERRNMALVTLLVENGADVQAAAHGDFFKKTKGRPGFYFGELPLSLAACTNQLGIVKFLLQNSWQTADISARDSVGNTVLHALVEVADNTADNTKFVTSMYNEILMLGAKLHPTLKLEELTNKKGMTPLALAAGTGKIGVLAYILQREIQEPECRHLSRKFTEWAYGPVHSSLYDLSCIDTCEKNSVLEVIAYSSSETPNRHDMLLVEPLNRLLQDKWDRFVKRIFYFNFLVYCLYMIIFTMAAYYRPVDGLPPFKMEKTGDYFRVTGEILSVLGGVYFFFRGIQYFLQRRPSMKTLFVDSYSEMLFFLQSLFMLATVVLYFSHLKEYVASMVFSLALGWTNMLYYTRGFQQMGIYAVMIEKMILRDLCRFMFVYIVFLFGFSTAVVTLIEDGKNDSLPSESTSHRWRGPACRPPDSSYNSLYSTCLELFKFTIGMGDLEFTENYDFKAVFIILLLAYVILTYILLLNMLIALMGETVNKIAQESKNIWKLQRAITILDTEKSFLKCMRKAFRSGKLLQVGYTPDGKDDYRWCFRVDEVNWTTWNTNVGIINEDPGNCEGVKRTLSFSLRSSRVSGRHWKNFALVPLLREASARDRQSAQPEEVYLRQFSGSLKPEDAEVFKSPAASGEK

pIC50, ≥ 6.00:
OCc1cc(Nc2ccc(C(F)(F)F)cn2)c2ccc(-c3ncccc3C(F)(F)F)nc2n1 [Compound 88, (7-[3-(trifluoromethyl)pyridin-2-yl]-4-{[5-(trifluoromethyl)pyridin-2-yl]amino}-1,8-naphthyridin-2-yl)methanol]
CN(C)Cc1cc(Nc2ccc(C(F)(F)F)cn2)c2ccc(-c3ncccc3C(F)(F)F)nc2n1 [Compound 89, 2-[(dimethylamino)methyl]-7-[3-(trifluoromethyl)pyridin-2-yl]-N-[5-(trifluoromethyl)pyridin-2-yl]-1,8-naphthyridin-4-amine]
C[C@@H]1CN(Cc2cc(Nc3ccc(C(F)(F)F)cn3)c3ccc(-c4ncccc4C(F)(F)F)nc3n2)C[C@H](C)O1 [Compound 90, rel-2-{[(2R,6S)-2,6-dimethylmorpholin-4-yl]methyl}-7-[3-(trifluoromethyl)pyridin-2-yl]-N-[5(trifluoromethyl)pyridin-2-yl]-1,8-naphthyridin-4-amine]
FC(F)(F)c1ccc(Nc2cc(CN3CCOCC3)nc3nc(-c4ncccc4C(F)(F)F)ccc23)nc1 [Compound 91, 2-(morpholin-4-ylmethyl)-7-[3-(trifluoromethyl)pyridin-2-yl]-N-[5-(trifluoromethyl)pyridin-2-yl]-1,8-naphthyridin-4-amine]
FC(F)(F)c1ccc(Nc2cc(CN3CCCCC3)nc3nc(-c4ncccc4C(F)(F)F)ccc23)nc1 [Compound 92, 2-(piperidin-1-ylmethyl)-7-[3-(trifluoromethyl)pyridin-2-yl]-N-[5-(trifluoromethyl)pyridin-2-yl]-1,8-naphthyridin-4-amine]
CC1CCCN1Cc1cc(Nc2ccc(C(F)(F)F)cn2)c2ccc(-c3ncccc3C(F)(F)F)nc2n1 (stereo not shown) [Compound 93, 2-[(2-methylpyrrolidin-1-yl)methyl]-7-[3-(trifluoromethyl)pyridin-2-yl]-N-[5-(trifluoromethyl)pyridin-2-yl]-1,8-naphthyridin-4-amine]
CCN(CC)Cc1cc(Nc2ccc(C(F)(F)F)cn2)c2ccc(-c3ncccc3C(F)(F)F)nc2n1 [Compound 94, 2-[(diethylamino)methyl]-7-[3-(trifluoromethyl)pyridin-2-yl]-N-[5-(trifluoromethyl)pyridin-2-yl]-1,8-naphthyridin-4-amine]
FC(F)(F)c1ccc(Nc2cc(CN3CCCC3)nc3nc(-c4ncccc4C(F)(F)F)ccc23)nc1 [Compound 95, 2-(pyrolidin-1-ylmethyl)-7-[3-(trifluoromethyl)pyridin-2-yl]-N-[5-(trifluoromethyl)pyridin-2-yl]-1,8-naphthyridin-4-amine]
COc1cc(Nc2ccc(C(F)(F)F)cn2)c2ccc(-c3ncccc3C(F)(F)F)nc2n1 [Compound 96, 2-methoxy-7-[3-(trifluoromethyl)pyridin-2-yl]-N-[5-(trifluoromethyl)pyridin-2-yl]-1,8-naphthyridin-4-amine]
Oc1cc(Nc2ccc(C(F)(F)F)cn2)c2ccc(-c3ncccc3C(F)(F)F)nc2n1 [Compound 97, 7-[3-(trifluoromethyl)pyridin-2-yl]-4-{[5-(trifluoromethyl)pyridin-2-yl]amino}-1,8-naphthyridin-2-ol]
FC(F)(F)c1ccc(Nc2cc(C3CCC3)nc3nc(-c4ncccc4C(F)(F)F)ccc23)nc1 [Compound 98, 2-cyclobutyl-7-[3-(trifluoromethyl)pyridin-2-yl]-N-[5-(trifluoromethyl)pyridin-2-yl]-1,8-naphthyridin-4-amine]
Cc1ccc(Nc2cc(C3CCC3)nc3nc(-c4ncccc4C(F)(F)F)ccc23)nc1 [Compound 99, 2-cyclobutyl-N-(5-methylpyridin-2-yl)-7-[3-(trifluoromethyl)pyridin-2-yl]-1,8-naphthyridin-4-amine]
N#Cc1ccc(Nc2cc(C3CCC3)nc3nc(-c4ncccc4C(F)(F)F)ccc23)nc1 [Compound 100, 6-({2-cyclobutyl-7-[3-(trifluoromethyl)pyridin-2-yl]-1,8-naphthyridin-4-yl}amino)nicotinonitrile]
FC(F)(F)c1cccnc1-c1ccc2c(Nc3ccc(Cl)cn3)cc(C3CCC3)nc2n1 [Compound 101, N-(5-chloropyridin-2-yl)-2-cyclobutyl-7-[3-(trifluoromethyl)pyridin-2-yl]-1,8-naphthyridin-4-amine]
CC(C)c1cc(Nc2ccc(C(F)(F)F)cn2)c2ccc(-c3ncccc3C(F)(F)F)nc2n1 [Compound 102, 2-isopropyl-7-[3-(trifluoromethyl)pyridin-2-yl]-N-[5-(trifluoromethyl)pyridin-2-yl]-1,8-naphthyridin-4-amine]
Cc1ccc(Nc2cc(C(C)C)nc3nc(-c4ncccc4C(F)(F)F)ccc23)nc1 [Compound 103, 2-isopropyl-N-(5-methylpyridin-2-yl)-7-[3-(trifluoromethyl)pyridin-2-yl]-1,8-naphthyridin-4-amine]
CC(C)c1cc(Nc2ccc(C#N)cn2)c2ccc(-c3ncccc3C(F)(F)F)nc2n1 [Compound 104, 6-({2-isopropyl-7-[3-(trifluoromethyl)pyridin-2-yl]-1,8-naphthyridin-4-yl}amino)nicotinonitrile]
CC(C)c1cc(Nc2ccc(Cl)cn2)c2ccc(-c3ncccc3C(F)(F)F)nc2n1 [Compound 105, N-(5-chloropyridin-2-yl)-2-isopropyl-7-[3-(trifluoromethyl)pyridin-2-yl]-1,8-naphthyridin-4-amine]
FC(F)(F)c1ccc(Nc2ccnc3nc(-c4ncccc4C(F)(F)F)ccc23)nc1 [Compound 106, 7-[3-(trifluoromethyl)pyridin-2-yl]-N-[5-(trifluoromethyl)pyridin-2-yl]-1,8-naphthyridin-4-amine]
FC(F)(F)c1ccc(Nc2ccnc3cc(-c4ncccc4C(F)(F)F)cnc23)nc1 [Compound 108, 7-[3-(trifluoromethyl)pyridin-2-yl]-N-[5-(trifluoromethyl)pyridin-2-yl]-1,5-naphthyridin-4-amine]
FC(F)(F)c1ccc(Nc2ccnc3cc(-c4ncccc4C(F)(F)F)ccc23)nc1 [Compound 109, 7-[3-(trifluoromethyl)pyridin-2-yl]-N-[5-(trifluoromethyl)pyridin-2-yl]quinolin-4-amine]
CCc1cc(Nc2ccc(C(F)(F)F)cn2)c2ccc(-c3ncccc3C(F)(F)F)nc2n1 [Compound 110, 2-ethyl-7-[3-(trifluoromethyl)pyridin-2-yl]-N-[5-(trifluoromethyl)pyridin-2-yl]-1,8-naphthyridin-4-amine]
CCc1cc(Nc2ccc(C(C)=O)cn2)c2ccc(-c3ncccc3C(F)(F)F)nc2n1 [Compound 111, 1-[6-({2-ethyl-7-[3-(trifluoromethyl)pyridin-2-yl]-1,8-naphthyridin-4-yl}amino)pyridin-3-yl]ethanone]
CCc1cc(Nc2ccc(C(C)(C)O)cn2)c2ccc(-c3ncccc3C(F)(F)F)nc2n1 [Compound 112, 2-[6-({2-ethyl-7-[3-(trifluoromethyl)pyridin-2-yl]-1,8-naphthyridin-4-yl}amino)pyridin-3-yl]propan-2-ol]
FC(F)(F)c1ccc(Nc2ccnc3nc(-c4ncccc4C(F)(F)F)cnc23)nc1 [Compound 113, 3-[3-(trifluoromethyl)pyridin-2-yl]-N-[5-(trifluoromethyl)pyridin-2-yl]pyrido[2,3-b]pyrazin-8-amine]
